Data set [1] has as its system N. farcinica IFM0284. The experiment in a line: Antimicrobial activity (MIC), N. farcinica. The format is cell-based. The following applies: Nocardia farcinica; N. farcinica IFM0284, Muller-Hinton broth, 24 hours, 37° C. As to the method:
(§1) The antimicrobial activity of compound 0624 was confirmed through the assaying of the minimum growth inhibitory concentration (MIC).
(§2) The MICs of compound 0624 against various bacteria were determined in a Muller-Hinton broth (BBL) containing 0.2% glucose, according to the standard defined by the Japan Chemotherapy Association (The Essentials of Antibiotics, the 4-th edition, Tokyo University Press, 1992).
(§3) The test bacteria were adjusted to 1×10^8 cfu/ml in the broth, and then used as test bacteria solutions.
(§4) The test samples (compounds 0624-A and 0624-B) were, separately, dissolved in methanol and were then serially diluted with the broth in a series of 2-fold dilution, starting from a concentration of 0.1 mg/ml. Each test bacteria solution (180 μl) and each test sample (20 μl) were divided in a 96-well microtiter plate, and cultured at 37° C. After 24 hours, the MIC was observed and calculated by the eye, and the resulting MIC was defined as MIC value.

Data set [2] concerns Staphylococcus aureus 209P. Kind of data set: Antimicrobial activity (MIC), Staphylococcus aureus. The format is cell-based. The following applies: Muller-Hinton broth, 24 hours, 37° C. As for the experimental part: as §1, §2, §3, §4
Data set [3] has as its system P388 cell line. Kind of data set: Growth inhibition of P388 cells (MTT assay). The format is cell-based. The conditions noted are these: Mus musculus, P388, 72 hours, 37° C. As to the method: (§5) Cell suspensions were prepared (at 5.6×10^6 cells/ml) by using RPMI 1640 medium for L1210 cell line, RPMI 1640 medium containing 20 μM 2-mercaptoethanol (all the media containing 10% bovine serum) for P388 cell line and an adriamycin resistant P388 cell line, Eagle's MEM medium for KB cell line, and α-MEM medium for CHO cell line.
(§6) Test samples (0624-A and 0624-B) were individually dissolved in methanol and serially diluted with the individual media in a series of 2-fold dilution starting from a concentration of 0.1 mg/ml. The cell suspensions (each of 180 μl) and each test sample (20 μl) were divided in a 96-well microtiter plate, and subjected to culturing in wet atmosphere of 5% CO2 -95% air at 37° C. 72 hours after, cell growth was determined by the calorimetric assay using 3-(4, 5-dimethyl-z-thiazolyl)-2,5-diphenyl-2H-tetrazolium bromide (MTT). More specifically, 20 μl each of 2 mg/ml MTT solution was added into each well, followed by culturing at 37° C. for 4 hours. Then, 50 μl of 50 % dimethylformamide solution containing 20% sodium dodecyl sulfate was added to each well, which was left to stand. The resulting formed violet formazan crystal was solubilized and subjected to determination of absorbance at 570 nm, by using a microplate reader (Immunoreader), which was used as the indicator of growth. […]
In general terms: Tetrazolium assays rely on reduction of a dye to a coloured formazan, in cell work by metabolically active cells.

Data set [4] deals with gram-positive bacteria. Kind of data set: Antimicrobial activity, summary in words. The format is cell-based. The conditions noted are these: gram-positive bacteria of Table 6. As to the method: as §1, §2, §3, §4
Data set [5] relates to N. nova IFM0290. Kind of data set: Antimicrobial activity (MIC), N. nova. The format is cell-based. The conditions noted are these: N. nova IFM0290, Muller-Hinton broth, 24 hours, 37° C. As for the experimental part: as §1, §2, §3, §4
The test system of data set [6] is KB cell line. The experiment in a line: Growth inhibition of KB cells (MTT assay). The format is cell-based. The following applies: Homo sapiens, 72 hours, 37° C. As for the experimental part:
as §5, §6

The test system of data set [7] is N. otitidiscaviarum IFM0239. Kind of data set: Antimicrobial activity (MIC), N. otitidiscaviarum. The format is cell-based. The following applies: N. otitidiscaviarum IFM0239, Muller-Hinton broth, 24 hours, 37° C. As to the method:
as §1, §2, §3, §4

In data set [8] the test system is cell lines L1210, P388, adriamycin resistant P388, KB and CHO. Kind of data set: Growth inhibition of the tumor cell line panel (MTT assay), summary in words. The format is cell-based. As for the experimental part: as §5, §6
Data set [9] concerns M. phlei ATCC11758. The experiment in a line: Antimicrobial activity (MIC), M. phlei. The format is cell-based. The conditions noted are these: Mycolicibacterium phlei; M. phlei ATCC11758, Muller-Hinton broth, 24 hours, 37° C. As for the experimental part:
as §1, §2, §3, §4

For data set [10], the system named is N. brasiliensis IFM0236. Kind of data set: Antimicrobial activity (MIC), N. brasiliensis. The format is cell-based. The following applies: N. brasiliensis IFM0236, Muller-Hinton broth, 24 hours, 37° C. As for the experimental part: as §1, §2, §3, §4
Data set [11] deals with N. asteroides IFM0319. Kind of data set: Antimicrobial activity (MIC), N. asteroides. The format is cell-based. The following applies: Nocardia asteroides; N. asteroides IFM0319, Muller-Hinton broth, 24 hours, 37° C. As to the method: as §1, §2, §3, §4
For data set [12], the system named is Mycobacterium smegmatis ATCC607. Kind of data set: Antimicrobial activity (MIC), Mycobacterium smegmatis. The conditions noted are these: Mycolicibacterium smegmatis; Mycobacterium smegmatis ATCC607, Muller-Hinton broth, 24 hours, 37° C. The format is cell-based. As for the experimental part: as §1, §2, §3, §4
Data set [13] has as its system CHO cell line. The experiment in a line: Growth inhibition of CHO cells (MTT assay). The conditions noted are these: Cricetulus griseus, 72 hours, 37° C. The format is cell-based. As for the experimental part: as §5, §6
Data set [14] concerns Nocardia transvalensis IFM0333. Kind of data set: Antimicrobial activity (MIC), Nocardia transvalensis. The format is cell-based. The following applies: Nocardia transvalensis IFM0333, Muller-Hinton broth, 24 hours, 37° C. As for the experimental part: as §1, §2, §3, §4
Data set [15] is described as follows: Solubility. The format is physicochemical.
The test system of data set [16] is Micrococcus luteus IFM2066. The experiment in a line: Antimicrobial activity (MIC), Micrococcus luteus. The format is cell-based. The conditions noted are these: Micrococcus luteus IFM2066, Muller-Hinton broth, 24 hours, 37° C. As to the method: as §1, §2, §3, §4
For data set [17], the system named is L1210 cell line. The experiment in a line: Growth inhibition of L1210 cells (MTT assay). The format is cell-based. The conditions noted are these: Mus musculus, L1210, 72 hours, 37° C. As to the method:
as §5, §6

In data set [18] the test system is Bacillus subtilis PC1189. The experiment in a line: Antimicrobial activity (MIC), Bacillus subtilis. The format is cell-based. The conditions noted are these: Bacillus subtilis PC1189, Muller-Hinton broth, 24 hours, 37° C. As for the experimental part: as §1, §2, §3, §4
In data set [19] the test system is Adriamycin resistant P388 cell line. Kind of data set: Growth inhibition of adriamycin resistant P388 cells (MTT assay). The format is cell-based. The following applies: Mus musculus, Adriamycin resistant P388, 72 hours, 37° C. As for the experimental part: as §5, §6
The subject of data set [20] is M. flavescens ATCC14474. Kind of data set: Antimicrobial activity (MIC), M. flavescens. The format is cell-based. The conditions noted are these: Mycolicibacterium flavescens; M. flavescens ATCC14474, Muller-Hinton broth, 24 hours, 37° C. As to the method:
as §1, §2, §3, §4

Setting [21] is: in chloroform, ether and hexane.
Setting [22] is: in water, methanol, ethanol, DMSO and ethyl acetate.

In brackets after ≈: the same amount, converted by molar mass. Where only a bound is given, the exact number is not on record here.

As a reminder, the MIC is the smallest concentration in the dilution series that meets the test's criterion for growth inhibition. The term IC50 denotes the concentration needed to halve the response being measured. Read a low IC50 as inhibition by little substance.

For the compound `COc1ccc(O)c2c1C(=O)c1cc3c(c(O)c1C2=O)C(OC1CC(C)(N(C)C)C(OC(C)=O)C(C)O1)C(OC)C(C)(O)C3=O` (stereo not drawn) [Compound 0624-B], the MIC in data set [1] is 12.5 µg/mL (≈ 19.9 µM); in data set [2], 100 µg/mL (≈ 159 µM); in [5], 1.56 µg/mL (≈ 2.49 µM); in data set [7] it was over 100 µg/mL; in [9] it was 3.13 µg/mL (≈ 4.99 µM); in data set [10] it was over 100 µg/mL. In addition, the MIC in data set [11] was 3.13 µg/mL (≈ 4.99 µM); in [12], 3.13 µg/mL (≈ 4.99 µM); in data set [14], 6.25 µg/mL (≈ 9.96 µM); in data set [16] it was 12.5 µg/mL (≈ 19.9 µM); in data set [18], 3.13 µg/mL (≈ 4.99 µM); in [20], 12.5 µg/mL (≈ 19.9 µM). Also, the IC50 in [3] was 0.59 µg/mL (≈ 0.94 µM); in [6], 1.32 µg/mL (≈ 2.1 µM); in [13], 18.6 µg/mL (≈ 29.6 µM); in data set [17] it was 0.18 µg/mL (≈ 0.287 µM); in [19], 1.05 µg/mL (≈ 1.67 µM). For the same compound, the “antimicrobial activity against gram-positive bacteria” value in data set [4] is “wide spectrum of antimicrobial activity”. Also, the “growth inhibitory activities against the cell lines” value in [8] is given as “have the growth inhibitory activities”. The Solubility entry in data set [15] (setting [21]) was “Insoluble”; in [15] (setting [22]), “Soluble”.
As to `COc1ccc(O)c2c1C(=O)c1cc3c(c(O)c1C2=O)C(OC1CC(C)(N(C)C)C(O)C(C)O1)C(OC)C(C)(O)C3=O` (stereo not drawn) [Compound 0624-A], the MIC amounted to 3.13 µg/mL (≈ 5.34 µM) in data set [1]; 3.13 µg/mL (≈ 5.34 µM) in data set [2]; 0.78 µg/mL (≈ 1.33 µM) in data set [5]; 1.56 µg/mL (≈ 2.66 µM) in data set [7]; 0.78 µg/mL (≈ 1.33 µM) in [9]; 6.25 µg/mL (≈ 10.7 µM) in [10]. Besides, the MIC in data set [11] was 1.56 µg/mL (≈ 2.66 µM); in data set [12], 1.56 µg/mL (≈ 2.66 µM); in data set [14], 3.13 µg/mL (≈ 5.34 µM); in [16] it was 1.56 µg/mL (≈ 2.66 µM); in data set [18], 6.25 µg/mL (≈ 10.7 µM); in data set [20] it was 3.13 µg/mL (≈ 5.34 µM). Moreover, the IC50 in data set [3] was 0.47 µg/mL (≈ 0.803 µM); in [6], 1.06 µg/mL (≈ 1.81 µM); in data set [13] it was 12.3 µg/mL (≈ 21 µM); in [17] it was 0.15 µg/mL (≈ 0.256 µM); in [19] it was 0.97 µg/mL (≈ 1.66 µM). Further, the “antimicrobial activity against gram-positive bacteria” value in data set [4] is listed as “wide spectrum of antimicrobial activity”. Besides, the “growth inhibitory activities against the cell lines” value in data set [8] is recorded as “have the growth inhibitory activities”. For the same compound, the Solubility result in data set [15] (setting [21]) is on record as “Insoluble”; in data set [15] (setting [22]), “Soluble”.

These data come from patent US5965407A, “Anthracycline compound 0624” (Higeta Shoyu Co. Ltd., priority 1997, dated 1999).
